# The source made the active and inactive calls.
# Tests used:
# Caspase-3 [1] = target: T1, Caspase-3 (Homo sapiens, UniProt P42574); format: functional
# T1 sequence (P42574 whole entry): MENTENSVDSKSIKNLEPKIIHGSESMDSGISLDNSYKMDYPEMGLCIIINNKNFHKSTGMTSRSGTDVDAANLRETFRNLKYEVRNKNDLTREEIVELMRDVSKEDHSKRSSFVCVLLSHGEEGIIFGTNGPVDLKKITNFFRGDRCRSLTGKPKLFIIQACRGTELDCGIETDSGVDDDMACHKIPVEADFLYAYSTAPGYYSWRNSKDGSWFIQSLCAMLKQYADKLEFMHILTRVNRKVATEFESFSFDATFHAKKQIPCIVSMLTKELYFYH
# [2] = target: T2, Sentrin-specific protease 7 (Homo sapiens, UniProt Q9BQF6); format: functional;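 also: Luminescence-based dose-response confirmation of ultra-high-throughput screening hits, measuring inhibition of SENP7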
# T2 sequence (Q9BQF6 whole entry): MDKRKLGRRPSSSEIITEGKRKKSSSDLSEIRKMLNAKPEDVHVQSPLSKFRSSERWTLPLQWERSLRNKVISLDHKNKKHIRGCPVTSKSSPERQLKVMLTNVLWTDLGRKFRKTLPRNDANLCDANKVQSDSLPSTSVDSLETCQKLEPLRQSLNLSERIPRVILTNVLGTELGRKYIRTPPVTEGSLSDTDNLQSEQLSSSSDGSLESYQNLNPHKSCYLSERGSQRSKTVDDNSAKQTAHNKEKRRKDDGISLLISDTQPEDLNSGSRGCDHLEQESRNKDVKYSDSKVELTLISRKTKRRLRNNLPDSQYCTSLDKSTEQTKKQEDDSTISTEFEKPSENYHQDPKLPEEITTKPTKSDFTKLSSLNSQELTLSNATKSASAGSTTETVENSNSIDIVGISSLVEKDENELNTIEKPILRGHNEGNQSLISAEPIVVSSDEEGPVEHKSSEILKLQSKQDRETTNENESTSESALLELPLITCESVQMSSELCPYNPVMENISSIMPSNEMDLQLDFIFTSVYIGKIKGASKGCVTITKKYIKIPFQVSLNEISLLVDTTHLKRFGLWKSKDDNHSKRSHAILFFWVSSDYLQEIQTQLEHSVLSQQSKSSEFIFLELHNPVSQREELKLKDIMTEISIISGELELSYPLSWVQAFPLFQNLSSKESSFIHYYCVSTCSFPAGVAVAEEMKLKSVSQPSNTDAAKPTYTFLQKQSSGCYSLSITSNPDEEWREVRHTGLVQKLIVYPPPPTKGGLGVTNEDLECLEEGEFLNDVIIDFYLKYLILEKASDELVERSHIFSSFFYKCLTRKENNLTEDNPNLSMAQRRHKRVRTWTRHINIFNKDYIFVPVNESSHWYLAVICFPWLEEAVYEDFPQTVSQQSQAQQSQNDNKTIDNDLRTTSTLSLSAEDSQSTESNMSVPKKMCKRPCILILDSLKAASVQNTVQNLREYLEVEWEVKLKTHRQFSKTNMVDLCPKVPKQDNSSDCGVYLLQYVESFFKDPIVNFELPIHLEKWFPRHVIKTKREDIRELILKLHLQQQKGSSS
# [3] = target: T3, Sentrin-specific protease 6 (Homo sapiens, UniProt Q9GZR1); format: functional;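 also: Luminescence-based dose-response confirmatory assay of SENP6 inhibition, following up an ultra-high-throughput screen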
# T3 sequence (Q9GZR1 whole entry): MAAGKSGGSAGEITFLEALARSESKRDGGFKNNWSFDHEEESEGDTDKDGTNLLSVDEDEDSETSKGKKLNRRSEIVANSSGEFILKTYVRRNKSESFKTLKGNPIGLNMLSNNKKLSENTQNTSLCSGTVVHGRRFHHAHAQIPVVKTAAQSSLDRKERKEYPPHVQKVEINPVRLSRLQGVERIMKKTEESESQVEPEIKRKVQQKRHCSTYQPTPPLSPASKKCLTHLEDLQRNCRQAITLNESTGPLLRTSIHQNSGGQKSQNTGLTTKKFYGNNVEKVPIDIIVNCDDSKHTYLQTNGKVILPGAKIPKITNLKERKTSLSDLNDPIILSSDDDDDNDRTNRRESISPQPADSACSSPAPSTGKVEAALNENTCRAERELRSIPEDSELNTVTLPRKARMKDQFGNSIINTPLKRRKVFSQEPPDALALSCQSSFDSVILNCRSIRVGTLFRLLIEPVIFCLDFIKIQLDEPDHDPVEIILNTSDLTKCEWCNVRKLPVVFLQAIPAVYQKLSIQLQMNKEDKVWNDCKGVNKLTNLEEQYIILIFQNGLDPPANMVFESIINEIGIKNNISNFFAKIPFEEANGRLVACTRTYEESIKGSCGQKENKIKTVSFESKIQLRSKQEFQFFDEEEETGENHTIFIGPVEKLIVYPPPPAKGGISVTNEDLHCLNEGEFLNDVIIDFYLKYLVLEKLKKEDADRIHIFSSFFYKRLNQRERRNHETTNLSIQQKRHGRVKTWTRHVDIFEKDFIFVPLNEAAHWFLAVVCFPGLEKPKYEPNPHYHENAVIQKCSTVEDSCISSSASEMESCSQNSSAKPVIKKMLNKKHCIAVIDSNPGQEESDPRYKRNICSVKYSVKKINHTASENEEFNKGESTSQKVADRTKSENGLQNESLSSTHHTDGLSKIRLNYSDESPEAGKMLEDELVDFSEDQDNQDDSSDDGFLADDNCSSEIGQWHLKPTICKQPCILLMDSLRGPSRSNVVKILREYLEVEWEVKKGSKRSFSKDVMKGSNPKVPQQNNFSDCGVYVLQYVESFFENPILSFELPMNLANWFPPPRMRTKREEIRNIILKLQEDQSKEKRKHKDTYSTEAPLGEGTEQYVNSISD
# [4] = target: T4, Sentrin-specific protease 8 (Homo sapiens, UniProt Q96LD8); format: functional
# T4 sequence (Q96LD8 whole entry): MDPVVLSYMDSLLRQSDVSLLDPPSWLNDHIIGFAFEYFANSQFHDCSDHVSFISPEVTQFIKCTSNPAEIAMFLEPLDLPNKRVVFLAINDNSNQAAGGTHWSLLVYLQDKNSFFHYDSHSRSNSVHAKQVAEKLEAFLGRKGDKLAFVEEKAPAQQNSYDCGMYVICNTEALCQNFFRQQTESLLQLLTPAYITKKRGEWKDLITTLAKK
# [5] = target: Botulinum neurotoxin type F (Clostridium botulinum, UniProt P30996); test: High-throughput multiplex microsphere dose response for inhibitors of toxin protease, specifically Botulinum neurotoxin light chain F protease, compounds from Cherry Pick 02.; format: functional; conditions: read-out: EC50_MICROM
# Beta-lactamase [6] = target: Beta-lactamase (Salmonella choleraesuis (strain SC-B67), UniProt Q5J463); test: Epi-absorbance-based counterscreen for selective VIM-2 inhibitors: dose response biochemical high throughput screening assay to identify inhibitors of TEM-1 serine-beta-lactamase.
# [7] = target: Dual specificity tyrosine-phosphorylation-regulated kinase 1A (Rattus norvegicus, UniProt Q63470); format: biochemical, Homo sapiens
# Beta-lactamase [8] = target: T5, Beta-lactamase (Pseudomonas aeruginosa, UniProt Q79MP6); test: IMP-1 metallo-beta-lactamase inhibitors, dose response, selectivity assay for VIM-2 inhibitor project, biochemical, epi-absorbance (AID 1920)
# Beta-lactamase [9] = target: T5, Beta-lactamase; test: […] counterscreen for selective VIM-2 inhibitors: dose response biochemical high throughput screening assay to identify inhibitors of IMP-1 metallo-beta-lactamase.
# [10] = target: T4, Sentrin-specific protease 8; format: functional; remark: listed apart in the source
# Caspase-3 [11] = target: T1, Caspase-3; test: Dose-response confirmation of uHTS inhibitor hits of Sentrin-Specific Protease 8 in a Caspase-3 Fluorescence assay.; format: functional
# Caspase-8 = Caspase-8 (Homo sapiens, UniProt Q14790); test: caspase-8 inhibition counter-screen, dose response, selectivity assay for caspase-6 inhibitor project, biochemical, Z-IETD-R110 fluorescence, cherry-picked samples (AID 743294)
# [12] = target: T4, Sentrin-specific protease 8; format: functional; remark: listed apart in the source
# Caspase-3 [13] = target: T1, Caspase-3; test: caspase-3 enzyme inhibitors, selectivity check, dose response, selectivity assay for caspase-6 allosteric inhibitor project, biochemical, fluorescence, cherry-picked samples (AID 743291)
# Caspase-6 = target: T6, Caspase-6 (Homo sapiens, UniProt P55212); test: human caspase-6 inhibitors, dose response, biochemical, VEID-R110 fluorescence, cherry-pick (AID 720632)
# T6 sequence (P55212 whole entry): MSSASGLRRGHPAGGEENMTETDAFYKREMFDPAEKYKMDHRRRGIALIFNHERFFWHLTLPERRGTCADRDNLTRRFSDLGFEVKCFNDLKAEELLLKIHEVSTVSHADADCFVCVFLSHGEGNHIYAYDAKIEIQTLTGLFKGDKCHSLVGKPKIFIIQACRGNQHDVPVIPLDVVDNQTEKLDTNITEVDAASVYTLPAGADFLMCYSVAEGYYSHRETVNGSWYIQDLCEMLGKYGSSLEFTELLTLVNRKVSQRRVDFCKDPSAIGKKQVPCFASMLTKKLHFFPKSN
# Caspase-9 = target: T7, Caspase-9 (Homo sapiens, UniProt P55211); test: caspase-9 enzyme inhibition, dose response, selectivity assay for caspase-6 inhibitor project, biochemical, fluorescence, plate reader, cherry-picked samples (AID 743293)
# T7 sequence (P55211 whole entry): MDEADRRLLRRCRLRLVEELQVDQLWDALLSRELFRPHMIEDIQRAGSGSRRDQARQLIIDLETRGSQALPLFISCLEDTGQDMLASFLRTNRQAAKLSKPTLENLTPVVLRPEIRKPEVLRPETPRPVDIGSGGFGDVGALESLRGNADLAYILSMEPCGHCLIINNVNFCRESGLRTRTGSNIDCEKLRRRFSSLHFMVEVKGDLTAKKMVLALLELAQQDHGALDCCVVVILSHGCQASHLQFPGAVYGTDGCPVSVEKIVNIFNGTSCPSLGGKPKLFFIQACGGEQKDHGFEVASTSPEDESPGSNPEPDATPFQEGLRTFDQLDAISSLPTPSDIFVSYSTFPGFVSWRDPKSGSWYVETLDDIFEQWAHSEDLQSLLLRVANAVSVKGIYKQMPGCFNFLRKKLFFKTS
# Caspase-7 = Caspase-7 (Homo sapiens, UniProt P55210); test: human caspase-7 inhibitors, dose response, selectivity assay for caspase-6 inhibitor project, biochemical, DEVD-R110 fluorescence, cherry-pick (AID 743295)
# [14] = T. cruzi growth inhibition in host cells, dose response, cell-based, plate reader, dry powder, set 2 (AID 652275); format: functional
# [15] = LMP1-driven NF-kB reporter inhibition, dose response, cell-based, luciferase reporter, luminescence, dry powder, set 2 (AID 624376); format: functional
# Albumin = Albumin (Bos taurus, UniProt P02769); test: Counterscreen for inhibitors of T-cell receptor (TCR)-CD3 interaction: Fluorescence-based biochemical high throughput dose response assay to identify inhibitors of T-cell receptor (TCR)-CD3 interaction using a TAMRA-labeled BSA probe.; format: functional
# Nonstructural protein 1 = Nonstructural protein 1 (Influenza A virus, UniProt Q194T2); format: functional, Influenza A virus (A/California/07/2009(H1N1))
# [16] = T. b. rhodesiense proliferation inhibition, dose response, STIB900 strain, plate reader, cherry pick (AID 651893); format: functional, cell-based; conditions: Trypanosoma brucei
# [17] = NIH/3T3 fibroblast cytotoxicity, dose response, cytotoxicity control for T. cruzi growth inhibitor project, cell-based, cherry-pick samples, set 2 (AID 651817); format: functional; conditions: NIH3T3
# [18] = L. donovani amastigote growth inhibition, dose response, axenic amastigotes, plate reader, cherry pick (AID 651891); format: functional, cell-based; conditions: Leishmania donovani
# [19] = cytotoxicity in L-6 rat myocytes, dose response, cytotoxicity control, cell-based, plate reader, cherry-pick (AID 651896); format: functional
# [20] = intracellular Trypanosoma cruzi inhibitors in host cells – cell-based, plate reader, cherry-pick samples, set 3, dose response (AID 651818); format: functional;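 also: compounds incubated with infected cells for about four days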
# [21] = Inhibition of Plasmodium falciparum NF54 Measured in Cell-Based System Using Plate Reader - 2138-11_Inhibitor_Dose_CherryPick_Activity.; format: functional
# [22] = T. cruzi intracellular amastigote growth inhibition, dose response, imaging, CA-I/72 strain, bovine embryo skeletal muscle, dry powder (AID 651885); format: functional, cell-based
# [23] = Inhibition of T. cruzi Tulahuen strain amastigotes in L-6 muscle cells Measured in Cell-Based and Microorganism Combination System Using Plate Reader - 2138-03_Inhibitor_Dose_CherryPick_Activity.; format: functional; conditions: Rattus norvegicus, L6
# T5 sequence (Q79MP6 whole entry): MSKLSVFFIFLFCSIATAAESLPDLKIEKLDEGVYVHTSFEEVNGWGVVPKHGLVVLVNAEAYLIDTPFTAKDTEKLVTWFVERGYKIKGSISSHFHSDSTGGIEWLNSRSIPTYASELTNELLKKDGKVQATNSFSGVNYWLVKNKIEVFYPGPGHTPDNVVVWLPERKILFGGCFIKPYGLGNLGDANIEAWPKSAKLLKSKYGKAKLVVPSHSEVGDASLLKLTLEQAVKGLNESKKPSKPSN
# Chain of Caspase-7 (P55210 24-198 limits assumed): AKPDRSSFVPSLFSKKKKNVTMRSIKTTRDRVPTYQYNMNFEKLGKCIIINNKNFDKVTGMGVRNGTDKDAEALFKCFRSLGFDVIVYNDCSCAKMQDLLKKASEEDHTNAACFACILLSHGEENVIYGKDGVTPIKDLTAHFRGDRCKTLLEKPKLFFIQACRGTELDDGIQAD
# Chain of Caspase-7 (P55210 207-303 limits assumed): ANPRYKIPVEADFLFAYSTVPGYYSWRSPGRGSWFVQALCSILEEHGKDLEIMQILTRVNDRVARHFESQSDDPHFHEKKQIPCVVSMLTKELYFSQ
# Chain of Albumin (P02769 whole entry): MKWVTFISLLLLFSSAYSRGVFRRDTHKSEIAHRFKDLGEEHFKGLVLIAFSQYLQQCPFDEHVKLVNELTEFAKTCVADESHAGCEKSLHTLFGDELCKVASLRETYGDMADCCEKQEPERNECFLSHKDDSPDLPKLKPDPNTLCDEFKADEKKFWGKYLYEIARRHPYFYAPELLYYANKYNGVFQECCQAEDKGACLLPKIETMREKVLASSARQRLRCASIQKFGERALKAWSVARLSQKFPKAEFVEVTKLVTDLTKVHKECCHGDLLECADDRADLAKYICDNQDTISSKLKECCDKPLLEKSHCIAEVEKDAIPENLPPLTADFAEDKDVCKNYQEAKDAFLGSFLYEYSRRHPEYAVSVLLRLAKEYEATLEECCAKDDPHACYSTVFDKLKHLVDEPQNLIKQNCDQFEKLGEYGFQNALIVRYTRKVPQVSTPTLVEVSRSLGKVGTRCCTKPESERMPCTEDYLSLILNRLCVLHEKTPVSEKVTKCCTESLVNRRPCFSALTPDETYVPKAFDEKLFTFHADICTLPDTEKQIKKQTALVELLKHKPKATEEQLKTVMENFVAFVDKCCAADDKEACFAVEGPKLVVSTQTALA
# Chain of Caspase-8 (Q14790 217-374 limits assumed): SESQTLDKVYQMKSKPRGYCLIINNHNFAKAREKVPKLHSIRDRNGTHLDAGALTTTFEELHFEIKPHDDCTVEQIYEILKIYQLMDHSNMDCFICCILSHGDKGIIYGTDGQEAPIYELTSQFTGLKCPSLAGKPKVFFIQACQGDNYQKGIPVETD
# Chain of Caspase-8 (Q14790 385-479 limits assumed): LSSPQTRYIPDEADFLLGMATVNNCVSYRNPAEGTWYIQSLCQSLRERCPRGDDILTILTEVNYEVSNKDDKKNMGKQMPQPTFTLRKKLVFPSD
# Chain of Botulinum neurotoxin type F (P30996 1-436 limits assumed): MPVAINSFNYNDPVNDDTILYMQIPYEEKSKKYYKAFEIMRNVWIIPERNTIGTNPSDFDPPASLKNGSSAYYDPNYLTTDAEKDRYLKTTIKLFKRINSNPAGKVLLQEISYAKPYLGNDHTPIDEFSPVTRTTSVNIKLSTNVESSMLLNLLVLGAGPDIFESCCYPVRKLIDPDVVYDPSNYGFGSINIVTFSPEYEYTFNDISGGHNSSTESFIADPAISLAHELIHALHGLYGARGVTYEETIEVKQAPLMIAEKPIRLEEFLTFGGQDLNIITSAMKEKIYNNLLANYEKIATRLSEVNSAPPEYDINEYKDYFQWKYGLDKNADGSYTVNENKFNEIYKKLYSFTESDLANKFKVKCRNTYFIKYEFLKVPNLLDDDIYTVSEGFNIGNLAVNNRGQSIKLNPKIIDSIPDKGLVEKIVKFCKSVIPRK
# Chain of Nonstructural protein 1 (Q194T2 whole entry): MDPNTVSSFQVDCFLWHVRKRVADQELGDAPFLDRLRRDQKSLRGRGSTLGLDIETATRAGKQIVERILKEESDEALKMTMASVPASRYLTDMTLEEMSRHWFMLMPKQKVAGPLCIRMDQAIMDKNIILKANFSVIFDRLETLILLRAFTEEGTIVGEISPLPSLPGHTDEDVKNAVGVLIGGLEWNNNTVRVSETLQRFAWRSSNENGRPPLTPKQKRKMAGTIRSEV
# Chain of Beta-lactamase (Salmonella choleraesuis (strain SC-B67), UniProt Q5J463) (Q5J463 whole entry): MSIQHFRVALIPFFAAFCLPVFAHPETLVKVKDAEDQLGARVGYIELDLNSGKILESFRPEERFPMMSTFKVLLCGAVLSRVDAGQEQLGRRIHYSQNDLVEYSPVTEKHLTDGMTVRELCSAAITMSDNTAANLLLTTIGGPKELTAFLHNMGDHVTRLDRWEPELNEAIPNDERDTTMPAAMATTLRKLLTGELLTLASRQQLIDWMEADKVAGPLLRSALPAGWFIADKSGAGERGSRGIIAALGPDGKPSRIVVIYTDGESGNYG
structure (smiles),measurement,setting,value
CCc1cccc2c(C(=O)COC(=O)c3ccccc3)c[nH]c12,IC50,Caspase-3 [1],49.9 µM (active)
same,IC50,[2],4.08 µM (active)
same,IC50,[3],> 100 µM (inactive)
same,IC50,[4],> 100 µM (inactive)
same,EC50,[5],> 20 µM (inactive)
O=C(O)c1[nH]c2ccc(Br)cc2c1CCN1C(=O)c2cccc([N+](=O)[O-])c2C1=O,IC50,Beta-lactamase [6],> 59.6 µM (inactive)
same,AC50,[7],23.1 µM (active)
same,IC50,Beta-lactamase [8],> 59.6 µM (inactive)
same,IC50,Beta-lactamase [9],> 59.6 µM (inactive)
CC[C@H](CO)Oc1cc(NCc2cccc(N)c2)c2ncn(C(C)C)c2c1,IC50,[10],1.65 µM (active)
same,IC50,Caspase-3 [11],8.35 µM (active)
same,AC50,Caspase-8,31.8 µM (active)
same,IC50,[12],1.87 µM (active)
same,AC50,Caspase-3 [13],3.87 µM (active)
same,AC50,Caspase-6,1.58 µM (active)
same,AC50,Caspase-9,46.5 µM (active)
same,AC50,Caspase-7,4.66 µM (active)
C[C@H]1CN([C@@H](C)CO)C(=O)c2cccc(NC(=O)c3ccncc3)c2O[C@@H]1CN(C)Cc1ccccc1Cl,AC50,[14],0.165 µM (active)
C[C@@H](NC(=O)C[C@H]1C=C[C@@H](NC(=O)Cc2ccccn2)[C@H](CO)O1)c1ccccc1,AbsAC35,[15],52.1 µM
O=C(NC(=S)NNC(=O)c1ccccc1O)c1cccnc1,IC50,Albumin,> 94.1 µM (inactive)
same,IC50,Nonstructural protein 1,7.11 µM (active)
C[C@@H]1CN([C@@H](C)CO)C(=O)c2cccc(NC(=O)c3ccncc3)c2O[C@H]1CN(C)Cc1ccc(-c2ccccc2)cc1,IC50,[16],0.729 µM (active)
same,AC50,[17],21.9 µM (active)
same,IC50,[18],13.3 µM (inactive)
same,IC50,[19],13.5 µM (active)
same,AC50,[20],0.08 µM (active)
same,IC50,[21],1.2 µM (active)
same,IC50,[22],0.146 µM (active)
same,IC50,[23],1.2 µM (active)

# — ChEMBL document CHEMBL1201862, “PubChem BioAssay data set” (2004)
